Laboratory results from ChEMBL document CHEMBL1938230, “6-Position optimization of tricyclic 4-quinolone-based inhibitors of glycogen synthase kinase-3β: discovery of nitrile derivatives with picomolar potency” (Bioorg Med Chem Lett, 2012).

Tests used:
[1] = target: PI4KA/PI4KAP2 (Homo sapiens) (UniProt P42356+A4QPH2); assay: Inhibition of human PI4KA/PI4KAP2 in HL-60 cells lysate assessed as reduction of labeling of acyl-phosphate ATP probe at 100 nM; assay type: cell-free
[2] = target: Interferon-induced, double-stranded RNA-activated protein kinase (Homo sapiens) (UniProt P19525); assay: Inhibition of human PKR in HL-60 cells lysate assessed as reduction of labeling of acyl-phosphate ATP probe at 100 nM; assay type: cell-free
[3] = target: T1, Serine/threonine-protein kinase tousled-like 1 (Homo sapiens) (UniProt Q9UKI8); assay: Inhibition of human TLK1 in HL-60 cells lysate assessed as reduction of labeling of acyl-phosphate ATP probe at 100 nM; assay type: cell-free
T1 sequence (whole entry): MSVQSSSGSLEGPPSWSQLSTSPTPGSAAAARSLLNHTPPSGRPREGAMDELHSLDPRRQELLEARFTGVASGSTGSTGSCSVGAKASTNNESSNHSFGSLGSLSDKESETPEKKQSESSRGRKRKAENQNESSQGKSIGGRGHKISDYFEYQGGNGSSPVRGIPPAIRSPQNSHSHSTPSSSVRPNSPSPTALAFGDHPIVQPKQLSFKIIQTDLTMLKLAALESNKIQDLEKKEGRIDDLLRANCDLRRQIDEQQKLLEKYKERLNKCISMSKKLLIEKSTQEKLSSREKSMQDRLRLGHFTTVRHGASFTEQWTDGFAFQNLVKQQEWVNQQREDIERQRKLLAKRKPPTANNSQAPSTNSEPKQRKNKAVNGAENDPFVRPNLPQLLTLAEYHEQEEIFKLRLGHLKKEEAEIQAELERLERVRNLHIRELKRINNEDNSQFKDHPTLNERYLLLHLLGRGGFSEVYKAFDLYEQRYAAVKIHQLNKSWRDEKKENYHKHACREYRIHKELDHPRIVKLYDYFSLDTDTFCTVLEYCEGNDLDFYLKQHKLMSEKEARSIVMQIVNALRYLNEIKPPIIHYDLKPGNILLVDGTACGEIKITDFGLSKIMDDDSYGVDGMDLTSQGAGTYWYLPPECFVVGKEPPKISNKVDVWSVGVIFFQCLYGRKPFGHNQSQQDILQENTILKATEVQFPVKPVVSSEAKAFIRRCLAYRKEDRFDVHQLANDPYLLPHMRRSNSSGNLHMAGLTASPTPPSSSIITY

[4] = target: Mitogen-activated protein kinase kinase kinase kinase 1 (Homo sapiens) (UniProt Q92918); assay: Inhibition of human HPK1 in HL-60 cells lysate assessed as reduction of labeling of acyl-phosphate ATP probe at 100 nM; assay type: cell-free
[5] = target: Mitogen-activated protein kinase kinase kinase kinase 5 (Homo sapiens) (UniProt Q9Y4K4); assay: Inhibition of human KHS1 in HL-60 cells lysate assessed as reduction of labeling of acyl-phosphate ATP probe at 100 nM; assay type: cell-free
HL-60 [6] = assay: Inhibition of human ACK in HL-60 cells lysate assessed as reduction of labeling of acyl-phosphate ATP probe at 100 nM
HL-60 [7] = assay: Inhibition of human FYN/SRC/YES in HL-60 cells lysate assessed as reduction of labeling of acyl-phosphate ATP probe at 100 nM
[8] = target: Protein-tyrosine kinase 2-beta (Homo sapiens) (UniProt Q14289); assay: Inhibition of human PYK2 in HL-60 cells lysate assessed as reduction of labeling of acyl-phosphate ATP probe at 100 nM; assay type: cell-free
[9] = target: Serine/threonine-protein kinase B-raf (Homo sapiens) (UniProt P15056); assay: Inhibition of human BRAF in HL-60 cells lysate assessed as reduction of labeling of acyl-phosphate ATP probe at 100 nM; assay type: cell-free
[10] = target: T2, Mixed lineage kinase domain-like protein (Homo sapiens) (UniProt Q8NB16); assay: Inhibition of human MLKL in HL-60 cells lysate assessed as reduction of labeling of acyl-phosphate ATP probe at 100 nM; assay type: cell-free
T2 sequence (whole entry): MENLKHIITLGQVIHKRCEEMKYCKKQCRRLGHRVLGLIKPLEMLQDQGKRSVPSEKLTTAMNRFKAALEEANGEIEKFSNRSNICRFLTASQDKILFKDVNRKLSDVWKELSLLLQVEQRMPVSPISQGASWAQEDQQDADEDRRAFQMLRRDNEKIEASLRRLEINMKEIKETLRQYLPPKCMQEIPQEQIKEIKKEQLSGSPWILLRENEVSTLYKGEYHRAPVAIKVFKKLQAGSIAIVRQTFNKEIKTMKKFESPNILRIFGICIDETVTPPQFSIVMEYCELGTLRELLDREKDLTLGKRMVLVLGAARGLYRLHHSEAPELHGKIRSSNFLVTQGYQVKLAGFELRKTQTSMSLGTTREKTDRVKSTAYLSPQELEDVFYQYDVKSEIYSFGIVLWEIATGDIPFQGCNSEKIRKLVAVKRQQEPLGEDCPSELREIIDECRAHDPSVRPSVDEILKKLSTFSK

[11] = target: Cyclin-dependent kinase 2 (Homo sapiens) (UniProt P24941); assay: Inhibition of human CDK2 in HL-60 cells lysate assessed as reduction of labeling of acyl-phosphate ATP probe at 100 nM; assay type: cell-free
[12] = target: Cyclin-dependent kinase 13 (Homo sapiens) (UniProt Q14004); assay: Inhibition of human CHED in HL-60 cells lysate assessed as reduction of labeling of acyl-phosphate ATP probe at 100 nM; assay type: cell-free
HL-60 [13] = assay: Inhibition of human CLK1/CLK4 in HL-60 cells lysate assessed as reduction of labeling of acyl-phosphate ATP probe at 100 nM

Sequence of Protein-tyrosine kinase 2-beta (Homo sapiens) (Q14289 whole entry, looked up): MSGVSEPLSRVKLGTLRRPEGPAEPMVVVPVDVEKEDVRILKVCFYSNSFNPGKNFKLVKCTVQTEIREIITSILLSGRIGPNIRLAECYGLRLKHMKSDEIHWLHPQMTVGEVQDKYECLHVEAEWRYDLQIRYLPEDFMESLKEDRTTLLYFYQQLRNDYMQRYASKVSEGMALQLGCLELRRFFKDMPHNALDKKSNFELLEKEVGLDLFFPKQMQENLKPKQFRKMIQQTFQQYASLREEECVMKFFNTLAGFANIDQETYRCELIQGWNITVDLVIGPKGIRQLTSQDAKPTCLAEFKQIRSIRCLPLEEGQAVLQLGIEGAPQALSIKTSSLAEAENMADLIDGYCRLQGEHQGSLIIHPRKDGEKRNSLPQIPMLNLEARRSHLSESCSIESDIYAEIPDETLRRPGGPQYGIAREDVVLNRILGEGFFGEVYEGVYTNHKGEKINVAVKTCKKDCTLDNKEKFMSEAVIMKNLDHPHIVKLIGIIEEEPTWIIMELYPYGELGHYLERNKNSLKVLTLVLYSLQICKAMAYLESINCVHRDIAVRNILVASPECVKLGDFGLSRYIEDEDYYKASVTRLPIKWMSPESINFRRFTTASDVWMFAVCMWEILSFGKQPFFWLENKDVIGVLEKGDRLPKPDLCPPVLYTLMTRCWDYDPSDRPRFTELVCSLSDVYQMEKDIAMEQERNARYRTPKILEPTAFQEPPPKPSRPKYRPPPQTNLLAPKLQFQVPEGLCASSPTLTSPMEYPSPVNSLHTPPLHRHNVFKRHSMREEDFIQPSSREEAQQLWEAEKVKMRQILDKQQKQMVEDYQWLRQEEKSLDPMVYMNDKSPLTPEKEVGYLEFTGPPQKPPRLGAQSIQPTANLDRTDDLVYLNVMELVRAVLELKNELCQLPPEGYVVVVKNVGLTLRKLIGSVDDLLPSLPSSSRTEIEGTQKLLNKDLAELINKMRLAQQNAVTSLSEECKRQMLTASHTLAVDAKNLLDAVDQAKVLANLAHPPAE
Sequence of Interferon-induced, double-stranded RNA-activated protein kinase (Homo sapiens) (P19525 whole entry): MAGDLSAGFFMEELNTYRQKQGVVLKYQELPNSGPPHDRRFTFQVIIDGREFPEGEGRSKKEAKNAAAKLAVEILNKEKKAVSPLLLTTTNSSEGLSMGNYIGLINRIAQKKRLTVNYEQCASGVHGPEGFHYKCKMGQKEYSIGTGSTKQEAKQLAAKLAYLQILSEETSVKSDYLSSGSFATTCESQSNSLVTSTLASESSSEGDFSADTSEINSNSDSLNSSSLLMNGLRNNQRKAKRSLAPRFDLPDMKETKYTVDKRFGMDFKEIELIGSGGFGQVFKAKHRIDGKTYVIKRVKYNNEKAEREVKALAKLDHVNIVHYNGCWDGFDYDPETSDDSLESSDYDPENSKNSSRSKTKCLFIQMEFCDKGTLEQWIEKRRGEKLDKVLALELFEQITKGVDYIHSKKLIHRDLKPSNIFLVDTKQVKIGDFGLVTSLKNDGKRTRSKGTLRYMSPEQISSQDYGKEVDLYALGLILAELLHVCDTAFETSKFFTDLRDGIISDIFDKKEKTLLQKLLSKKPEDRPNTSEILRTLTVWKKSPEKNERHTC
Sequence of Mitogen-activated protein kinase kinase kinase kinase 5 (Homo sapiens) (Q9Y4K4 whole entry, looked up): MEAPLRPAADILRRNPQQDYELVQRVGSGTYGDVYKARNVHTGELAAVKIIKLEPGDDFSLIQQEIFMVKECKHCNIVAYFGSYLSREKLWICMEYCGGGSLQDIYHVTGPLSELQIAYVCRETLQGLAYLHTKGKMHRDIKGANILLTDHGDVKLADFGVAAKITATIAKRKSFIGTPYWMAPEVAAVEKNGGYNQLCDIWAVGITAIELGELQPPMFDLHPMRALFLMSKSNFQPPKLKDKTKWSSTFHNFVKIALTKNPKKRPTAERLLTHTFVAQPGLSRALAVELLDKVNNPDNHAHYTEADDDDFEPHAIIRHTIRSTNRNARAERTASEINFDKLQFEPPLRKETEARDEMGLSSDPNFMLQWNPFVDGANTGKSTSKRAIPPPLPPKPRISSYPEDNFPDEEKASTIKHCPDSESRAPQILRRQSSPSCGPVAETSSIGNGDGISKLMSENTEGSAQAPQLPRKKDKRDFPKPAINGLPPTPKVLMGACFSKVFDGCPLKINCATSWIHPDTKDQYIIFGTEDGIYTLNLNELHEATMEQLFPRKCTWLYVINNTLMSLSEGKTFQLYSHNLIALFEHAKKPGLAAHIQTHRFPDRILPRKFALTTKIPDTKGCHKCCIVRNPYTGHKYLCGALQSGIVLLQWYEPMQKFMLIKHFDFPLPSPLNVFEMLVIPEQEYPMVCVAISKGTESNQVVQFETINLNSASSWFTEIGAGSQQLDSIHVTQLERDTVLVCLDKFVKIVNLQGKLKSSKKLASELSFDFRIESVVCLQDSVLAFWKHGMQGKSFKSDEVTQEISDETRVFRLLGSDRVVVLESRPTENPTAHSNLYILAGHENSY
Sequence of Mitogen-activated protein kinase kinase kinase kinase 1 (Homo sapiens) (Q92918 whole entry, looked up): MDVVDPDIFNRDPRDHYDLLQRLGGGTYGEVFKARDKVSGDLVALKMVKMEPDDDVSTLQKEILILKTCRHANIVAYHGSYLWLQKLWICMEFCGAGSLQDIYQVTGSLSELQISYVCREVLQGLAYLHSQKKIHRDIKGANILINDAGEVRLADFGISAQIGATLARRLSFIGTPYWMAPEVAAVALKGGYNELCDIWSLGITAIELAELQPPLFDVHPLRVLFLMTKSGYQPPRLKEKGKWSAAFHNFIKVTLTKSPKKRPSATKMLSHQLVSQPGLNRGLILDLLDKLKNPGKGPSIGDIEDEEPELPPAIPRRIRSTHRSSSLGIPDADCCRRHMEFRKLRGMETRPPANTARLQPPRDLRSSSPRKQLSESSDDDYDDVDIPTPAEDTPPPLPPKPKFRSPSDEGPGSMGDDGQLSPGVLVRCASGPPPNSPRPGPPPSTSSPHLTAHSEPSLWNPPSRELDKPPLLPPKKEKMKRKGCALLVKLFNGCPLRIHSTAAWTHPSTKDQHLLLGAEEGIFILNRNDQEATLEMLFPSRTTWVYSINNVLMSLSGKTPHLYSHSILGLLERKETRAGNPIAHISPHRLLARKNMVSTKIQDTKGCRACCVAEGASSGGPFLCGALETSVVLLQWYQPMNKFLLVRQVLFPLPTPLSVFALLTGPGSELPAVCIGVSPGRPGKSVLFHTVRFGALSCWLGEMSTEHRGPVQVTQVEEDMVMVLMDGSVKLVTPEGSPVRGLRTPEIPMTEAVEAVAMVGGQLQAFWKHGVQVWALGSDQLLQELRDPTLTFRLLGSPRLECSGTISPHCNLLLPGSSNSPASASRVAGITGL
Sequence of Serine/threonine-protein kinase B-raf (Homo sapiens) (P15056 whole entry, the tested form may be a part): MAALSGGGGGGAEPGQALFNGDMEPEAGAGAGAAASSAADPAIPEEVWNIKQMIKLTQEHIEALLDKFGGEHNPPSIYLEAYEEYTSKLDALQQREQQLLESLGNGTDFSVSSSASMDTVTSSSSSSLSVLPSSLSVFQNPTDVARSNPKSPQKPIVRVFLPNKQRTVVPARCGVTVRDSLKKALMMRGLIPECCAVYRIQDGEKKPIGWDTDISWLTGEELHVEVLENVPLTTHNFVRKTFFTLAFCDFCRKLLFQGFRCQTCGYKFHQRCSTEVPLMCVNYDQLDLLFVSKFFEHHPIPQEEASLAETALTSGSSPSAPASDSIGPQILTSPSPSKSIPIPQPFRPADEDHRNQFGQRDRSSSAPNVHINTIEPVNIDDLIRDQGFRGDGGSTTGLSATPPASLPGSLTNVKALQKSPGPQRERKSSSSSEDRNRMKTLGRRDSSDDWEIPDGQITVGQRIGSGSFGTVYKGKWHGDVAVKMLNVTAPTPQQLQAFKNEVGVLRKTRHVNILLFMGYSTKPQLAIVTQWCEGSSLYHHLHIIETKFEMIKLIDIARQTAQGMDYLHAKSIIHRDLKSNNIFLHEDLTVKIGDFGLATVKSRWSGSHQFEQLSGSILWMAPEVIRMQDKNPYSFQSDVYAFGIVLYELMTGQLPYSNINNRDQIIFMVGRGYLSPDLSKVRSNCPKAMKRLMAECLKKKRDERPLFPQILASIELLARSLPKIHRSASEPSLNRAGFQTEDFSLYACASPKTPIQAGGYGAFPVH

C[C@H]1COc2c(NCCCc3ccccn3)c(F)c(N)c3c(=O)c(C#N)cn1c23
< 35%: inhibition [1] | inhibition [2] | inhibition [3] | inhibition [4] | inhibition [5] | inhibition at 0.1 µM (HL-60 [6]) | inhibition at 0.1 µM (HL-60 [7]) | inhibition [8] | inhibition [9] | inhibition [10] | inhibition [11] | inhibition [12] | inhibition at 0.1 µM (HL-60 [13])

C[C@H]1COc2c(NCCCc3ccccn3)c(F)c(N)c3c(=O)c(C(=O)O)cn1c23
< 35%: inhibition [1] | inhibition [2] | inhibition [3] | inhibition [4] | inhibition [5] | inhibition at 0.1 µM (HL-60 [6]) | inhibition at 0.1 µM (HL-60 [7]) | inhibition [8] | inhibition [9] | inhibition [10] | inhibition [11] | inhibition [12] | inhibition at 0.1 µM (HL-60 [13])

C[C@H]1COc2c(NCCCn3cccn3)c(F)c(N)c3c(=O)c(C(=O)O)cn1c23
< 35%: inhibition [1] | inhibition [2] | inhibition [3] | inhibition [4] | inhibition [5] | inhibition at 0.1 µM (HL-60 [6]) | inhibition at 0.1 µM (HL-60 [7]) | inhibition [8] | inhibition [9] | inhibition [10] | inhibition [11] | inhibition [12] | inhibition at 0.1 µM (HL-60 [13])

C[C@H]1COc2c(NCCCn3cccn3)c(F)c(N)c3c(=O)c(C#N)cn1c23
< 35%: inhibition [1] | inhibition [2] | inhibition [3] | inhibition [4] | inhibition [5] | inhibition at 0.1 µM (HL-60 [6]) | inhibition at 0.1 µM (HL-60 [7]) | inhibition [8] | inhibition [9] | inhibition [10] | inhibition [11] | inhibition [12] | inhibition at 0.1 µM (HL-60 [13])
